Target: hMCH-1R (Homo sapiens (Human), UniProt Q99705)
Assay: MCH-1 receptor binding test (125I-MCH binding to hMCH-1R transfected cell membranes)
Settings: competition with 100 pM 125I-MCH, membranes of CHO/Galpha16 cells stably transfected with hMCH-1R
Procedure: Res Commun. […] After the incubation the reaction is filtered using a cell harvester through 0.5% PEI treated fibreglass filters (GF/B, Unifilter Packard). The membrane-bound radioactivity retained on the filter is then determined after the addition of scintillator substance (Packard Microscint 20) in a measuring device (TopCount of Packard). […] The analysis of the concentration binding curve is carried out on the assumption of one receptor binding site.

Sequence of hMCH-1R (Q99705 whole entry): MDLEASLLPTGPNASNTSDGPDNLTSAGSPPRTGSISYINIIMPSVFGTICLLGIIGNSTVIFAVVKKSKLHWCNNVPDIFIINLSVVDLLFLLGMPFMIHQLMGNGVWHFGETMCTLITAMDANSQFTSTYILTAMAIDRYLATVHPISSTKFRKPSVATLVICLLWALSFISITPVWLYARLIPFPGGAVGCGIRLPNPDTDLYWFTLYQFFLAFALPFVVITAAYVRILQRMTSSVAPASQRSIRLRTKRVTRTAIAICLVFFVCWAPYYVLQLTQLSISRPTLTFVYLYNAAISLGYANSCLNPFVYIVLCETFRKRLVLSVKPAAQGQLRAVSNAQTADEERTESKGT

IC50 [nM] | SMILES
12 | Cc1cc(CN2CC[C@@H](O)C2)ccc1C(=O)Cn1ncc(OCc2ccccc2)cc1=O [Example 5.4, (R)-5-Benzyloxy-2-{2-[4-(3-hydroxy-pyrrolidin-1-ylmethyl)-2-methyl-phenyl]-2-oxo-ethyl}-2H-pyridazin-3-one]
22 | Cc1cc(CN2CC[C@@H](O)C2)ccc1C(=O)Cn1ncc(OCc2ccc(Br)cn2)cc1=O [Example 8.1, (R)-5-(5-Bromo-pyridin-2-ylmethoxy)-2-{2-[4-(3-hydroxy-pyrrolidin-1-ylmethyl)-2-methyl-phenyl]-2-oxo-ethyl}-2H-pyridazin-3-one]
19 | CCN(CC)Cc1ccc(C(=O)Cn2ccc(OCc3ccc(Br)cn3)cc2=O)c(C)c1 [Example 4.20, 4-(5-Bromo-pyridin-2-ylmethoxy)-1-[2-(4-diethylaminomethyl-2-methyl-phenyl)-2-oxo-ethyl]-1H-pyridin-2-one]
59 | Cc1cc(CN2CCOCC2)ccc1C(=O)Cn1ccc(OCc2ccc(Br)cn2)cc1=O [Example 4.11]
34 | Cc1cc(CN2CCC(CO)CC2)ccc1C(=O)Cn1ccc(OCc2ccc(Cl)cn2)cc1=O [Example 3.12]
20 | Cc1cc(CN2CCCC[C@@H]2CO)ccc1C(=O)Cn1ncc(OCc2ccc(Br)cn2)cc1=O [Example 8.7, (R)-5-(5-Bromo-pyridin-2-ylmethoxy)-2-{2-[4-(2-hydroxymethyl-piperidin-1-ylmethyl)-2-methyl-phenyl]-2-oxo-ethyl}-2H-pyridazin-3-one]
30 | Cc1cc(CN2CC[C@H](O)C2)ccc1C(=O)Cn1ccc(OCc2ccccc2)cc1=O [Example 1.11, (S)-4-Benzyloxy-1-{2-[4-(3-hydroxy-pyrrolidin-1-ylmethyl)-2-methyl-phenyl]-2-oxo-ethyl}-1H-pyridin-2-one]
40 | Cc1cc(CN2CCOCC2)ccc1C(=O)Cn1ccc(OCc2ccccc2)cc1=O [Example 1.4]
35 | Cc1cc(CN2CCCCC2)ccc1C(=O)Cn1ncc(OCc2ccc(F)cn2)cc1=O [Example 6.2, 5-(5-Fluoro-pyridin-2-ylmethoxy)-2-[2-(2-methyl-4-piperidin-1-ylmethyl-phenyl)-2-oxo-ethyl]-2H-pyridazin-3-one]
19 | Cc1cc(CN2CCCC2)ccc1C(=O)Cn1ncc(OCc2ccc(Cl)cn2)cc1=O [Example 7.15, 5-(5-Chloro-pyridin-2-ylmethoxy)-2-[2-(2-methyl-4-pyrrolidin-1-ylmethyl-phenyl)-2-oxo-ethyl]-2H-pyridazin-3-one]
19 | Cc1cc(CN2CC3CC(C2)C3O)ccc1C(=O)Cn1ccc(OCc2ccc(Cl)cn2)cc1=O (stereo not shown) [Example 3.16]
26 | Cc1cc(CN2CCCC2)ccc1C(=O)Cn1ccc(OCc2ccc(Cl)cn2)cc1=O [Example 3.8, 4-(5-Chloro-pyridin-2-ylmethoxy)-1-[2-(2-methyl-4-pyrrolidin-1-ylmethyl-phenyl)-2-oxo-ethyl]-1H-pyridin-2-one]
11 | Cc1cc(CN2CCC[C@H]2CO)ccc1C(=O)Cn1ncc(OCc2ccccc2)cc1=O [Example 5.3, (S)-5-Benzyloxy-2-{2-[4-(2-hydroxymethyl-pyrrolidin-1-ylmethyl)-2-methyl-phenyl]-2-oxo-ethyl}-2H-pyridazin-3-one]
25 | Cc1cc(CN2CCC[C@H](O)C2)ccc1C(=O)Cn1ncc(OCc2ccc(Cl)cn2)cc1=O [Example 7.10]
67 | Cc1cc(CN2CCCC2)ccc1C(=O)Cn1ccc(OCc2ccc(F)cn2)cc1=O [Example 2.1, 4-(5-Fluoro-pyridin-2-ylmethoxy)-1-[2-(2-methyl-4-pyrrolidin-1-ylmethyl-phenyl)-2-oxo-ethyl]-1H-pyridin-2-one]
18 | Cc1cc(CN2CCC(C)(O)C2)ccc1C(=O)Cn1ncc(OCc2ccc(Br)cn2)cc1=O (stereo not shown) [Example 8.5]
30 | Cc1cc(CN2CCC(O)CC2)ccc1C(=O)Cn1ncc(OCc2ccc(Cl)cn2)cc1=O [Example 7.14, 5-(5-Chloro-pyridin-2-ylmethoxy)-2-{2-[4-(4-hydroxy-piperidin-1-ylmethyl)-2-methyl-phenyl]-2-oxo-ethyl}-2H-pyridazin-3-one]
84 | Cc1cc(CN2CCN(C)CC2)ccc1C(=O)Cn1ccc(OCc2ccc(Cl)cn2)cc1=O [Example 3.5]
31 | Cc1cc(CN2CCC[C@@H](O)C2)ccc1C(=O)Cn1ccc(OCc2ccccc2)cc1=O [Example 1.15, (R)-4-Benzyloxy-1-{2-[4-(3-hydroxy-piperidin-1-ylmethyl)-2-methyl-phenyl]-2-oxo-ethyl}-1H-pyridin-2-one]
36 | Cc1cc(CN2CCC(O)CC2)ccc1C(=O)Cn1ccc(OCc2ccc(Cl)cn2)cc1=O [Example 3.7]
18 | Cc1cc(CN2CCC2)ccc1C(=O)Cn1ccc(OCc2ccc(Br)cn2)cc1=O [Example 4.21, 1-[2-(4-Azetidin-1-ylmethyl-2-methyl-phenyl)-2-oxo-ethyl]-4-(5-bromo-pyridin-2-ylmethoxy)-1H-pyridin-2-one]
10 | CCNCc1ccc(C(=O)Cn2ncc(OCc3ccccc3)cc2=O)c(C)c1 [Example 5.6, 5-Benzyloxy-2-[2-(4-ethylaminomethyl-2-methyl-phenyl)-2-oxo-ethyl]-2H-pyridazin-3-one]
16 | Cc1cc(CN2CC3CC(C2)C3O)ccc1C(=O)Cn1ccc(OCc2ccccc2)cc1=O (stereo not shown) [Example 1.18]
13 | Cc1cc(CN2CCC(CO)CC2)ccc1C(=O)Cn1ccc(OCc2ccc(Br)cn2)cc1=O [Example 4.3, 4-(5-Bromo-pyridin-2-ylmethoxy)-1-{2-[4-(4-hydroxymethyl-piperidin-1-ylmethyl)-2-methyl-phenyl]-2-oxo-ethyl}-1H-pyridin-2-one]
23 | Cc1cc(CN2CCC[C@@H](O)C2)ccc1C(=O)Cn1ccc(OCc2ccc(Br)cn2)cc1=O [Example 4.12, (R)-4-(5-Bromo-pyridin-2-ylmethoxy)-1-{2-[4-(3-hydroxy-piperidin-1-ylmethyl)-2-methyl-phenyl]-2-oxo-ethyl}-1H-pyridin-2-one]
50 | CCNCc1ccc(C(=O)Cn2ccc(OCc3ccc(Br)cn3)cc2=O)c(C)c1 [Example 4.6, 4-(5-Bromo-pyridin-2-ylmethoxy)-1-[2-(4-ethylaminomethyl-2-methyl-phenyl)-2-oxo-ethyl]-1H-pyridin-2-one]
72 | Cc1cc(CN2CCN(C)CC2)ccc1C(=O)Cn1ccc(OCc2ccc(Br)cn2)cc1=O [Example 4.14]
26 | Cc1cc(CN2CCC(CO)CC2)ccc1C(=O)Cn1ncc(OCc2ccc(Cl)cn2)cc1=O [Example 7.8]

SMILES | IC50 [nM]
Cc1cc(CNC(C)C)ccc1C(=O)Cn1ccc(OCc2ccc(Br)cn2)cc1=O [Example 4.15, 4-(5-Bromo-pyridin-2-ylmethoxy)-1-{2-[4-(isopropylamino-methyl)-2-methyl-phenyl]-2-oxo-ethyl}-1H-pyridin-2-one] | 18
COc1ccc(COc2ccn(CC(=O)c3ccc(CN4CCCC4)cc3C)c(=O)c2)nc1 [Example 11.3] | 26
CCNCc1ccc(C(=O)Cn2ncc(OCc3ccc(F)cn3)cc2=O)c(C)c1 [Example 6.3] | 59
CCNCc1ccc(C(=O)Cn2ccc(OCc3ccc(F)cn3)cc2=O)c(C)c1 [Example 2.6] | 134
CNCc1ccc(C(=O)Cn2ccc(OCc3ccc(Cl)cn3)cc2=O)c(C)c1 [Example 3.10] | 37
Cc1cc(CN2CCCCC2)ccc1C(=O)Cn1ccc(OCc2ccccc2)cc1=O [Example 1.9] | 11

— patent US8933079B2, “Pyridone and pyridazinone derivatives as anti-obesity agents” (Boehringer Ingelheim International GmbH, priority 2012, dated 2015)
